The test system of one data set is Bibionidae. As to conditions: chronic/long-term, duration: 28 days.
The next data set concerns Bird. As to conditions: reproductive; oral; feed.
A further data set concerns Apis mellifera. As to conditions: acute, mortality.
The test system of another data set is Tagia sp. As to conditions: acute; duration: 14 days; mortality.
The subject of another data set is Aphidius rhopalosiphi. Conditions: acute; duration: 7 days; mortality.
In another data set the test system is Colinus virginianus. Conditions: acute, oral, mortality.
The next data set relates to Daphnia magna. Conditions: chronic/long-term; duration: 21 days; reproduction.
The subject of the next data set is Oncorhynchus mykiss. Conditions: acute; duration: 96 hours; mortality.
A further data set concerns Pimephales promelas. Conditions: chronic/long-term; duration: 35 days; growth.

≈ marks a conversion by molar mass, not a printed value. A value given as a limit tells only on which side of the number the result lay.

In the case of `CCCN(CCC)c1c([N+](=O)[O-])cc(C(F)(F)F)cc1[N+](=O)[O-]` [Trifluralin], the NOEC in the data set on Bibionidae (development) worked out at 0.25 mg/L; in the data set on Bibionidae (mortality), 810 mg/kg; in the data set with Bird, 1000 mg/kg; in the data set with Daphnia magna, 0.0507 mg/L; in the data set with Pimephales promelas, 0.0003 mg/L. For the same molecule, the LD50 is over 100 µg/piece in the data set with Apis mellifera (duration: 48 hours, dermal); over 100 µg/piece in the data set with Apis mellifera (oral, unspecified); over 2250 mg/kg in the data set with Colinus virginianus; over 5000 mg/kg with Rattus norvegicus (acute, oral, mortality). The LC50 in the data set on Tagia sp. was over 1000 mg/kg; in the data set on Colinus virginianus (diet), 2970 mg/kg; in the data set on Oncorhynchus mykiss, 0.088 µg/mL (≈ 0.262 µM). This molecule returned an LEL in the data set on Aphidius rhopalosiphi of 1200 g/ha. In the data set on Rattus norvegicus (chronic, duration: 2 years, histopathology: neoplastic), this molecule registered an LOAEL of 30 mg/kg-day. In addition, the NOAEL was found to be 148 mg/kg-day with Rattus norvegicus (reproduction developmental) and 2.6 mg/kg-day in the data set on Rattus norvegicus (subchronic, duration: 90 days).

(Values after EPA's ToxValDB 9.5 (doi:10.2903/j.efsa.2005.28r).)
